This is an account of results in US20060122279A1, “Hydrophobic polyamine amides as potent lipopolysaccharide sequestrants” (priority 2004, published 2006).

Each structure is given as a SMILES string. “And” between values parts separate entries of the source, which are not always exact repeats. Identical values can stand only once. Like-named read-outs stand apart in the source and are kept apart here.

For one assay, the system named is NFκB. The experiment in a line: NFκB inhibition (LPS-induced). It is filed as cell-based. The settings on record: for IC50: Table 7 focused library, NFκB inhibition, read-out: NFκ B; for prevention of LPS-induced NFκβ cytokine release from stimulated lymphocytes: in words. The text has this:
A focused library of alkyl or acyl c-substituted lysine-spermine conjugates is synthesized with even carbon-numbered chains of C14 to C20 lengths. […] Furthermore, the data showhigh activity compounds are those with chain lengths between C16 and C20. […] The exemplary compounds L-Lys-ε-(stearoyl)-N^1-spermine, D-Lys-ε-(stearoyl)-N^1-spermine, L-Lys-ε-(octadecanyl)-N^1-spermine and D-Lys-ε-(octadecanyl)—N1-spermine all show high activity for the prevention of LPS-induced NFκβ cytokine release from stimulated lymphocytes. Furthermore, the exemplary compounds L-Lys-ε-(stearoyl)-N^1-spermine, D-Lys-ε-(stearoyl)-N^1-spermine, L-Lys-ε-(octadecanyl)-N^1-spermine and D-Lys-ε-(octadecanyl)-N^1-spermine all show high activity for the prevention of LPS-induced NO release from stimulated lymphocytes.

Assay [1] concerns murine macrophage J774.A1 cells. Briefly: Nitric oxide (NO) inhibition in LPS-stimulated J774.A1 cells (Griess). In kind it is cell-based. The settings on record: for prevention of LPS-induced NO release from J774.A1 macrophages: in words. The procedure: Murine monocytes (J774.A1 cells) produce measurable quantities of NO on exposure to LPS and provide a model for the rapid assessment of compounds to neutralize LPS activity. […] In all experiments, Polymyxin B (PMB), a decapeptide antibiotic, known to bind and neutralize LPS,^29;47;48 is used as a reference compound.
Nitric oxide production is measured as total nitrite in murine macrophage J774.A1 cells using the Griess reagent system.^53;54 Murine macrophage J774.A1 cells are grown in RPMI-1640 cell-culture medium containing L-glutamine and sodium bicarbonate and supplemented with 10% fetal bovine serum, 1% L-glutamine-penicillin-streptomycin solution, and 200 μg/ml L-arginine at 37° C. in a 5% CO2 atmosphere. Cells are plated at ˜2×10^6/ml in a volume of 40 μl/well, in 384 well, flat-bottomed, cell culture treated microtiter plates until confluency and subsequently stimulated with 100 ng/ml lipopolysaccharide (LPS). Concurrent to LPS stimulation, serially diluted concentrations of test compounds are added to the cell medium and left to incubate overnight for 16 h. Polymyxin B is used as reference compound in each plate. Positive—(LPS stimulation only) and negative-controls (J774.A1 medium only) are included in each experiment. Nitrite concentrations are measured adding 30 μl of supernatant to equal volumes of Griess reagents (50 μl/well; 0.1% NED solution in ddH2O and 1% sulfanilamide, 5% phosphoric acid solution in ddH2O) and incubating for 15 minutes at room temperature in the dark. Absorbance at 535 nm is measured using a Molecular Devices Spectramax M2 multifunction plate reader (Sunnyvale, Calif.). Nitrite concentrations are interpolated from standard curves obtained from serially diluted sodium nitrite standards.
(The Griess reaction detects nitrite, a stable product of nitric oxide.)

Assay [2] is classed as binding, E. coli 0111:B4. The settings on record: for EC50: E. coli 0111:B4 LPS, Tables 1-3, read-out: ED50 (half-maximal effective displacement of BC probe from LPS). The procedure: Polymyxin B (PMB), a peptide antibiotic known to bind and neutralize LPS^47 serves as the positive control and reference compound for every plate, enabling the quantitative assessment of repeatability and reproducibility (CV and Z′ factors) for the assay. Robotic liquid handling is performed on a Precision 2000 automated microplate pipetting system, programmed using the Precision Power software, Bio-Tek Instruments Inc., VT, USA. Stock solutions of LPS (5 mg/ml; E. coli 0111:B4; procured from Sigma) and BC (500 μM) are prepared in Tris buffer (pH 7.4, 50 mM). 1 ml each of the LPS and BC stocks are mixed and diluted in Tris buffer to a final volume of 100 ml, yielding final concentrations of 50 μg/ml of LPS and 5 μM BC. 40 μl of this BC:LPS mixture is added to each well of the plate using the Precision 2000. Fluorescence measurements are made at 25° C. on a Fluoromax-3 with Micromax Microwell 384-well plate reader, using DataMax software, Jobin Yvon Inc., N.J. The BC excitation wavelength is 580 nm, emission spectra are taken at 620 nm with both emission and excitation monochromator bandpasses set at 5 nm.

In a further assay the test system is CF-1 mice. Conditions: previous studies (ref. 37); cited from earlier work.
The mark [3] stands for this setting: J774.A1 cells, 100 ng/ml LPS, 16 h, Tables 1-3, read-out: NO IC50.
[4] abbreviates: Mus musculus, J774.A1, 16 h, J774.A1 cells, 100 ng/ml LPS, 16 h, Tables 1-3, read-out: NO IC50.
[5] abbreviates: Mus musculus, J774.A1, Table 7 focused library, NO inhibition, read-out: NO.
Where [6] appears, read: Table 7 focused library, NO inhibition, read-out: NO.

For the compound `CCCCCCCCCCCCCCCCCCCC(=O)NCCCCC(N)C(=O)NCCCNCCCCNCCCN` [Compound 7, L-Lys-ε-(eicosanoyl)-N^1-spermine], the IC50 came out at 1.24 µM with NFκB, 1.21 µM in assay [1] (setting [3]), 1.2 µM in assay [1] (setting [4]) and 4.69 µM in assay [1] (setting [5]). Moreover, the EC50 in assay [2] turned out to be 6.46 µM.
For the compound `CCCCCCCCCCCCCCCCCC(=O)NCCCCC(N)C(=O)NCCCNCCCCNCCCN` [Compound 9, L-Lys-ε-(stearoyl)-N^1-spermine], the IC50 turned out to be 0.736 µM in the assay on NFκB, 18.1 µM in assay [1] (setting [3]) and 8.78 µM in assay [1] (setting [5]). The “prevention of LPS-induced NFκβ cytokine release from stimulated lymphocytes” value (shortened to “prevention … from stimulated lymphocytes”) in the assay with NFκB is “high activity”. Moreover, in assay [1], the “prevention of LPS-induced NO release from J774.A1 macrophages” value (“prevention of LPS-induced NO release” below) was “high activity”. For the same compound, the EC50 in assay [2] was 16 µM and 16.4 µM.
As to `CCCCCCCCCCCCCCCC(=O)NCCCCC(N)C(=O)NCCCNCCCCNCCCN` [Compound 14, L-Lys(palmitoyl)-N^1-spermine], the IC50 was 0.819 µM with NFκB; 6.41 µM in assay [1] (setting [3]); 16.8 µM in assay [1] (setting [5]); 6.4 µM in assay [1] (read-out: NO IC50, J774.A1 cells, 100 ng/ml LPS, 16 h, Tables 1-3). Besides, the EC50 in assay [2] is 11 µM and 10.7 µM.
In the case of `CCCCCCCCCCCCCC(=O)NCCCCC(N)C(=O)NCCCNCCCCNCCCN` [Compound 16, L-Lys-ε-(myristoyl)-N^1-spermine], the results for the IC50 (with NFκB; in assay [1] (setting [4]); in assay [1] (setting [5])) were 0.753 µM, 1.6 µM and 22.2 µM, respectively. In addition, in assay [2], the EC50 came out at 5.63 µM.
With `CCCCCCCCCCCCCCCCNCCCCC(N)C(=O)NCCCNCCCCNCCCN` [Compound 26, L-Lys-ε-(“hexadecyl)-N^1-spermine], the IC50 with NFκB was found to be 0.19 µM; in assay [1] (setting [5]), 3.78 µM; in assay [2] (b47, cis-unsaturated vs saturated alkyl), 5.6 µM. For the same compound, the EC50 in assay [2] is 5.6 µM and 5.56 µM.
Take `CCCCCCCCCCCCCCCCCCNCCCC[C@H](N)C(=O)NCCCNCCCCNCCCN` [Compound 44, L-Lys-ε-(octadecanyl)-N^1-spermine]: in the assay with NFκB, the “prevention … from stimulated lymphocytes” value is recorded as “high activity”. In addition, in assay [1] (setting [6]), the IC50 came out at 2.25 µM. The “prevention of LPS-induced NO release” value in assay [1] is reported as “high activity”.
In the case of `CCCCCCCCCCCCCCCCCCNCCCC[C@@H](N)C(=O)NCCCNCCCCNCCCN` [Compound 48, D-Lys-ε-(octadecanyl)-N^1-spermine], the “prevention … from stimulated lymphocytes” value in the assay on NFκB is on record as “high activity”. Moreover, the IC50 in assay [1] (setting [6]) amounted to 3.08 µM. Further, the “prevention of LPS-induced NO release” value in assay [1] is given as “high activity”.
For the compound `CCCCCCCC/C=C\CCCCCCCC(=O)OCC(COC(=O)CCCCCCC/C=C\CCCCCCCC)NC(=O)C(CCCNCCCN)NCCCN` (stereo not shown) [DOSPER], the window of protection in the assay with CF-1 mice was 15 min.
